According to the supplement of paper PMC10883282:

Legend:
Experiment in all cases: relative viability vs DMSO control (72 h) (fraction); higher = more viable cells
HT1080 = system: HT1080
Summary of the method: (§1)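 Sarcoma cell lines were seeded in 384-well plates at densities set to reach 80–90% confluence. After 24 h, 2.5 µl of serially diluted compound was added (source plates 10 mM to 0.0002 mM), and plates were held 72 h at 37 °C, 5% CO2, with 0.1% DMSO vehicle and a 5 µM positive control. Relative viability came from ATPLite readings as percent growth, averaged over up to triplicate wells. Data were rescaled so full viability equals 1 and none equals 0.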

KHOS-NP = system: KHOS-NP
Summary of the method: as §1

SK-ES-1 = system: SK-ES-1
Summary of the method: as §1

RD-ES = system: RD-ES
Summary of the method: as §1

SW982 = system: SW982
Summary of the method: as §1

KHOS-240S = system: KHOS-240S
Summary of the method: as §1

G401 = system: G401
Summary of the method: as §1

A204 = system: A204
Summary of the method: as §1

SW1353 = system: SW1353
Summary of the method: as §1

SW872 = system: SW872
Summary of the method: as §1

SYO-1 = system: SYO-1
Summary of the method: as §1

SW684 = system: SW684
Summary of the method: as §1

CC(C)Oc1ccc(-c2nn([C@@H](C)c3oc4ccc(F)cc4c(=O)c3-c3cccc(F)c3)c3ncnc(N)c23)cc1F [Umbralisib]
Settings	relative viability
A204, 0.00017 µM	1.08
A204, 0.00051 µM	1.11
A204, 0.00152 µM	1.12
A204, 0.00457 µM	1.12
A204, 0.01372 µM	1.08
A204, 0.04115 µM	1.09
A204, 0.1235 µM	1.08
A204, 0.3704 µM	1.07
A204, 1.111 µM	0.986
A204, 3.333 µM	1.02
A204, 10 µM	0.9
G401, 0.00017 µM	1.02
G401, 0.00051 µM	1.068
G401, 0.00152 µM	1.09
G401, 0.00457 µM	1.05
G401, 0.01372 µM	1.03
G401, 0.04115 µM	1.01
G401, 0.1235 µM	1.02
G401, 0.3704 µM	0.99
G401, 1.111 µM	0.988
G401, 3.333 µM	1.05
G401, 10 µM	1.1
HT1080, 0.00017 µM	1.07
HT1080, 0.00051 µM	1.09
HT1080, 0.00152 µM	1.07
HT1080, 0.00457 µM	1.09
HT1080, 0.01372 µM	1.06
HT1080, 0.04115 µM	1.069
HT1080, 0.1235 µM	1.08
HT1080, 0.3704 µM	1.07
HT1080, 1.111 µM	1.05
HT1080, 3.333 µM	1.05
HT1080, 10 µM	0.955
KHOS-240S, 0.00017 µM	1.05
KHOS-240S, 0.00051 µM	1.08
KHOS-240S, 0.00152 µM	1.09
KHOS-240S, 0.00457 µM	1.08
KHOS-240S, 0.01372 µM	1.07
KHOS-240S, 0.04115 µM	1.06
KHOS-240S, 0.1235 µM	1.07
KHOS-240S, 0.3704 µM	1.06
KHOS-240S, 1.111 µM	1.03
KHOS-240S, 3.333 µM	1
KHOS-240S, 10 µM	0.909
KHOS-NP, 0.00017 µM	1.091
KHOS-NP, 0.00051 µM	1.085
KHOS-NP, 0.00152 µM	1.095
KHOS-NP, 0.00457 µM	1.1
KHOS-NP, 0.01372 µM	1.1
KHOS-NP, 0.04115 µM	1.09
KHOS-NP, 0.1235 µM	1.11
KHOS-NP, 0.3704 µM	1.08
KHOS-NP, 1.111 µM	1.1
KHOS-NP, 3.333 µM	1.1
KHOS-NP, 10 µM	1.077
RD-ES, 0.00017 µM	1
RD-ES, 0.00051 µM	1
RD-ES, 0.00152 µM	1.01
RD-ES, 0.00457 µM	1.001
RD-ES, 0.01372 µM	0.979
RD-ES, 0.04115 µM	1
RD-ES, 0.1235 µM	1.02
RD-ES, 0.3704 µM	1
RD-ES, 1.111 µM	0.994
RD-ES, 3.333 µM	1.01
RD-ES, 10 µM	1.02
SK-ES-1, 0.00017 µM	1.07
SK-ES-1, 0.00051 µM	1.07
SK-ES-1, 0.00152 µM	1.05
SK-ES-1, 0.00457 µM	1.07
SK-ES-1, 0.01372 µM	1.06
SK-ES-1, 0.04115 µM	1.09
SK-ES-1, 0.1235 µM	1.04
SK-ES-1, 0.3704 µM	1.04
SK-ES-1, 1.111 µM	1.04
SK-ES-1, 3.333 µM	1.08
SK-ES-1, 10 µM	1.02
SW684, 0.00017 µM	1.13
SW684, 0.00051 µM	1.17
SW684, 0.00152 µM	1.16
SW684, 0.00457 µM	1.21
SW684, 0.01372 µM	1.2
SW684, 0.04115 µM	1.19
SW684, 0.1235 µM	1.16
SW684, 0.3704 µM	1.06
SW684, 1.111 µM	0.966
SW684, 3.333 µM	0.9274
SW684, 10 µM	0.882
SW872, 0.00017 µM	1.09
SW872, 0.00051 µM	1.09
SW872, 0.00152 µM	1.1
SW872, 0.00457 µM	1.08
SW872, 0.01372 µM	1.11
SW872, 0.04115 µM	1.087
SW872, 0.1235 µM	1.07
SW872, 0.3704 µM	1.07
SW872, 1.111 µM	1.09
SW872, 3.333 µM	1.095
SW872, 10 µM	1.04
SW982, 0.00017 µM	1.03
SW982, 0.00051 µM	1.078
SW982, 0.00152 µM	1.07
SW982, 0.00457 µM	1.06
SW982, 0.01372 µM	1.05
SW982, 0.04115 µM	1.067
SW982, 0.1235 µM	1.07
SW982, 0.3704 µM	1.079
SW982, 1.111 µM	1.063
SW982, 3.333 µM	1.08
SW982, 10 µM	1.12
SW1353, 0.00017 µM	1.03
SW1353, 0.00051 µM	1.03
SW1353, 0.00152 µM	1.032
SW1353, 0.00457 µM	1.06
SW1353, 0.01372 µM	1.03
SW1353, 0.04115 µM	1
SW1353, 0.1235 µM	1.01
SW1353, 0.3704 µM	0.959
SW1353, 1.111 µM	0.97
SW1353, 3.333 µM	0.946
SW1353, 10 µM	0.8866
SYO-1, 0.00017 µM	1.04
SYO-1, 0.00051 µM	1.02
SYO-1, 0.00152 µM	1.03
SYO-1, 0.00457 µM	1.03
SYO-1, 0.01372 µM	1.03
SYO-1, 0.04115 µM	0.995
SYO-1, 0.1235 µM	1.01
SYO-1, 0.3704 µM	1.02
SYO-1, 1.111 µM	0.975
SYO-1, 3.333 µM	0.968
SYO-1, 10 µM	0.897
